Results taken from patent US6747016B1, “Substituted purine derivatives as inhibitors of cell adhesion” (Aventis Pharma Deutschland GmbH, priority 1999, dated 2004).

Tests used:
[1] = molecular target: human vitronectin receptor αvβ3 (Homo sapiens, UniProt P05106+P06756); test: Kistrin binding assay (K/VnR, αvβ3 ELISA test); conditions: inhibition of binding of kistrin to human vitronectin receptor
Text: The inhibition of the binding of kistrin to human vitronectin receptor (VnR) described below is a test method by which the antagonistic action of the compounds of the invention on the vitronectin receptor αvβ3 can be determined (αvβ3 ELISA Test; the test method is abbreviated as “K/VnR” in the listing of the test results).
Kistrin is purified according to the methods of Dennis et al., as described in Proc. Natl. Acad. Sci. USA 87 (1989) 2471 and Proteins: Structure, Function and Genetics 15 (1993) 312.
Purification of Human Vitronectin Receptor (αvβ3)
144 (1987) 475. Human vitronectin receptor αvβ3 can also be obtained from some cell lines (for example from 293 cells, a human embryonic kidney cell line) which are co-transfected with DNA sequences for both subunits αv and β3 of the vitronectin receptor. The subunits are extracted with octyl glycoside and then chromatographed through concanavalin A, heparin-Sepharose and S-300.
Murine monoclonal antibodies which are specific for the β3 subunits of the vitronectin receptor, are prepared according to the method of Newman et al., Blood, 1985, 227, or by a similar process. The rabbit Fab 2 anti-mouse Fc conjugate to horseradish peroxidase (anti-mouse Fc HRP) was obtained from Pel Freeze (Catalog No. 715 305-1).
The ability of substances to inhibit the binding of kistrin to the vitronectin receptor can be determined using an ELISA test. For this purpose, Nunc 96-well microtiter plates are coated with a solution of kistrin (0.002 mg/ml) according to the method of Dennis et al., as described in Proteins: Structure, Function and Genetics 15 (1993) 312. The plates are then washed twice with PBS/0.05% Tween-20 and blocked by incubating (60 min) with bovine serum albumin (BSA, 0.5%, RIA grade or better) in buffer solution (Tris-HCl (50 mM), NaCl (100 mM), MgCl2 (1 mM), CaCl2 (1 mM), MnCl2 (1 mM), pH 7). Solutions of known inhibitors and of the test substances are prepared in concentrations from 2×10^−12 to 2×10^−6 mol/l in assay buffer (BSA (0.5%, RIA grade or better); Tris-HCl (50 mM), NaCl (100 mM), MgCl2 (1 mM), CaCl2 (1 mM), MnCl2 (1 mM), pH 7). The blocked plates are emptied, and in each case 0.025 ml of this solution which contains a defined concentration (2×10^−12 to 2×10^−6 mol/l) either of a known inhibitor or of a test substance, are added to each well. 0.025 ml of a solution of the vitronectin receptor in assay buffer (0.03 mg/ml) is pipetted into each well of the plate and the plate is incubated at room temperature for 60-180 min on a shaker. In the meantime, a solution (6 ml/plate) of a murine monoclonal antibody specific for the β3 subunit of the vitronectin receptor is prepared in assay buffer (0.0015 mg/ml). A second rabbit antibody (0.001 ml of stock solution/6 ml of the murine monoclonal anti-β3 antibody solution) which is an anti-mouse Fc HRP antibody conjugate is added to this solution, and this mixture of murine anti-β3 antibody and rabbit anti-mouse Fc HRP antibody conjugate is incubated during the time of the receptor-inhibitor incubation. The test plates are washed four times with PBS solution which contains 0.05% Tween-20, and in each case 0.05 ml/well of the antibody mixture is pipetted into each well of the plate and incubated for 60-180 min. The plate is washed four times with PBS/0.05% Tween-20 and then developed with 0.05 ml/well of a PBS solution which contains 0.67 mg/ml of o-phenylenediamine and 0.012% of H2O2. Alternatively to this, o-phenylenediamine can be employed in a buffer (pH 5) which contains Na3PO4 and citric acid. The color development is stopped using 1 N H2SO4 (0.05 ml/well). The absorption for each well is measured at 492-405 nm and the data are evaluated by standard methods.

[2] = molecular target: 293 cells cotransfected with αv and β3 subunits of the vitronectin receptor αvβ3, binding to human vitronectin (Homo sapiens, UniProt P05106+P06756); test: Vitronectin/293 cell test (Vn/293 cell test); format: cell-based; conditions: inhibition of binding of 293 cells to human vitronectin
Chain of 293 cells cotransfected with αv and β3 subunits of the vitronectin receptor αvβ3, binding to human vitronectin (P05106 whole entry): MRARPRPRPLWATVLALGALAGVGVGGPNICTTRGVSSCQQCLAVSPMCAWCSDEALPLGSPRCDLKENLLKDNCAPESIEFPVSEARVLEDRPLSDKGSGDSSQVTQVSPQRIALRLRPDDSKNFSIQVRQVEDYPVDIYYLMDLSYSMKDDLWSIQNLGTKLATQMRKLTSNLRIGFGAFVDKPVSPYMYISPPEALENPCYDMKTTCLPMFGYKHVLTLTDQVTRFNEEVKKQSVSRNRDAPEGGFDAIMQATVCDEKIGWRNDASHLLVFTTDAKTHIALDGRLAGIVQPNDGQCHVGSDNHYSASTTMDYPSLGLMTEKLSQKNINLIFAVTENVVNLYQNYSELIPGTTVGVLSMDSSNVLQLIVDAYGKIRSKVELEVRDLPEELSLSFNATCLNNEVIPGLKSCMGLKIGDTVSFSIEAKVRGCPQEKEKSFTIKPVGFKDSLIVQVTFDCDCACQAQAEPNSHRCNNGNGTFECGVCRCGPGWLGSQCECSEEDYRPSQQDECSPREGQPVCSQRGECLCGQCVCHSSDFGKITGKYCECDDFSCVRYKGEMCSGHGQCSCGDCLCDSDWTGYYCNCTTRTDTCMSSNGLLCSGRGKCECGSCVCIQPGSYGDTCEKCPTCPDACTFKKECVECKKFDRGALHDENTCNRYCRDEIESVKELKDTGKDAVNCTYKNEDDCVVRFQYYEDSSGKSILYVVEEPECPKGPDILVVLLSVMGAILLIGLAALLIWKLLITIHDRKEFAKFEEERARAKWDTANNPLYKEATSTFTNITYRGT
Chain of 293 cells cotransfected with αv and β3 subunits of the vitronectin receptor αvβ3, binding to human vitronectin (P06756 whole entry): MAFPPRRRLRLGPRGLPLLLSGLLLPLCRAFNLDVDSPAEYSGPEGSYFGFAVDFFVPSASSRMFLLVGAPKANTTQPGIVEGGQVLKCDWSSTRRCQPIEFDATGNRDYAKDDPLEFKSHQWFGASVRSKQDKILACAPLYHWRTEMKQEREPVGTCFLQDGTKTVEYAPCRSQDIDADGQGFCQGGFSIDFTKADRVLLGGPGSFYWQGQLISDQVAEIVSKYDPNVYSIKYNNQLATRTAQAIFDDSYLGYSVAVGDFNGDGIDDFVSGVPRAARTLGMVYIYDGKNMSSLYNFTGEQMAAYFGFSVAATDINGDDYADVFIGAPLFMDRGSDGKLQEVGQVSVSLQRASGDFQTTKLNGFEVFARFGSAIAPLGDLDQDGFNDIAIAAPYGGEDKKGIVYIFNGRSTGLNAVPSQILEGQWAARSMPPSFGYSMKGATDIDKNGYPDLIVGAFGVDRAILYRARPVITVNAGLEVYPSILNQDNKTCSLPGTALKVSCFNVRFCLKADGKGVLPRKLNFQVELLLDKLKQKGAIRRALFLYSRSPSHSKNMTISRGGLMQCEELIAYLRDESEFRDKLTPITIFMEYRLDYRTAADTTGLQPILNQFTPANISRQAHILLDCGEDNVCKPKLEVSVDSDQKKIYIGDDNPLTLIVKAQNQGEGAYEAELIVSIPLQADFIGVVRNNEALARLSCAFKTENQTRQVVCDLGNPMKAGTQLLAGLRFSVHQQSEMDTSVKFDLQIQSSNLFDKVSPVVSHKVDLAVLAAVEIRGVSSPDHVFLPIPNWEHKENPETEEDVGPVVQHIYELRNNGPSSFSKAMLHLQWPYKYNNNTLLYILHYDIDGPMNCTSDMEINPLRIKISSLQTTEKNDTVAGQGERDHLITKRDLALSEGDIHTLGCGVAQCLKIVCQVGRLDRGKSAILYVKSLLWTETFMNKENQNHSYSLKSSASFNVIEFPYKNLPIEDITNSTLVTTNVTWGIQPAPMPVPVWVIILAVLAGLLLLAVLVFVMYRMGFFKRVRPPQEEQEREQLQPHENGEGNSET
Protocol: 2) Vitronectin/293 Cell Test
In this test the inhibition of binding of 293 cells to human vitronectin (Vn) by the compounds of the invention is determined (the test method is abbreviated as Vn/293 cell test in the listing of the test results).
Purification of Human Vitronectin
Human vitronectin was isolated from human plasma and purified by affinity chromatography according to the method of Yatohgo et al., Cell Structure and Function 23 (1988) 281.
293 cells, a human embryonic kidney cell line, which were cotransfected with DNA sequences for the αv and β3 subunits of the vitronectin receptor αvβ3, were selected for a high rate of expression (>500,000 αvβ3 receptors/cell) according to the FACS method. The selected cells were cultured and sorted again by means of FACS in order to obtain a stable cell line (15 D) with expression rates>1,000,000 copies of αvβ3 per cell.
A Linbro 96-well tissue culture plate with a flat bottom was coated overnight at 4° C. with human vitronectin (0.01 mg/ml, 0.05 ml/well) in phosphate-buffered saline solution (PBS) and then blocked with 0.5% strength BSA (bovine serum albumin). Solutions of the test substances from 10^−10 mol/l to 2×10^−3 mol/l in glucose-containing DMEM medium were prepared and 0.05 ml/well of the solution were added to the plate in each case. The cells which expressed high levels of αvβ3 (for example 15 D) were suspended in glucose-containing DMEM medium and the suspension was adjusted to a content of 25,000 cells/0.05 ml of medium. 0.05 ml of this cell suspension was added to each well and the plate was incubated at 37° C. for 90 min. The plate was washed 3 times with warm PBS in order to remove unbound cells. The bound cells were lyzed in citrate buffer (25 mM, pH 5.0) which contained 0.25% Triton X-100. The hexoseamidase substrate p-nitrophenyl-N-acetyl-β-D-glucosaminide was then added and the plate was incubated at 37° C. for 90 min. The reaction was stopped with a glycine (50 mM)/EDTA (5 mM) buffer (pH 10.4) and the absorption of each well was measured at 405 to 650 nm. The data were analyzed according to standard methods.

[3] = test system: bone resorption by osteoclasts; test: Pit Assay (osteoclast resorption test); format: cell-based; conditions: inhibition of bone resorption
Text: The inhibition of bone resorption by the compounds of the invention can be determined, for example, with the aid of an osteoclast resorption test (“Pit Assay”), for example analogously to WO-A-95/32710 which is incorporated herein by reference.

Chain of human vitronectin receptor αvβ3 (P06756 31-889 limits assumed): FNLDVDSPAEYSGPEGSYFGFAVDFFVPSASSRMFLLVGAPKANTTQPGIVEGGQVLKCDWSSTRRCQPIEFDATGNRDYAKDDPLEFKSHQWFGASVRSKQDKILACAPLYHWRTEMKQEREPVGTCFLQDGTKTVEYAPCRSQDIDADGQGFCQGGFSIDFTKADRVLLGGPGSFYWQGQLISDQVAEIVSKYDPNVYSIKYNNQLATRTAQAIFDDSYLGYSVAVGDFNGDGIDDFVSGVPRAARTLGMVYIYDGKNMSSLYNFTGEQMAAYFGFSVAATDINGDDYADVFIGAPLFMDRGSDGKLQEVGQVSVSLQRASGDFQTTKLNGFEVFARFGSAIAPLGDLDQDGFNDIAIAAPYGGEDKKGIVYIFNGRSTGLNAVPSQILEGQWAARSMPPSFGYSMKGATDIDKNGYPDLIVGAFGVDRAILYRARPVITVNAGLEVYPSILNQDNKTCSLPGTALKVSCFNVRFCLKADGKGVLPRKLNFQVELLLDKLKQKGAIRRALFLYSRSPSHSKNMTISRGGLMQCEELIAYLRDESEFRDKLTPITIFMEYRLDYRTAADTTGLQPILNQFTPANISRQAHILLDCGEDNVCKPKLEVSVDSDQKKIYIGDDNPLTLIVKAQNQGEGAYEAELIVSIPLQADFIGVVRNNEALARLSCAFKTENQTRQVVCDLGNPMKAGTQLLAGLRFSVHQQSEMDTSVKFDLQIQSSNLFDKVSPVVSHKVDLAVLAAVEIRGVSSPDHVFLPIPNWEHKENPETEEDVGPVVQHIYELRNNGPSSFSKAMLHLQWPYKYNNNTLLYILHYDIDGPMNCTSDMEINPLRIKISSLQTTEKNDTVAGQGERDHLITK
Chain of human vitronectin receptor αvβ3 (P06756 891-1048 limits assumed): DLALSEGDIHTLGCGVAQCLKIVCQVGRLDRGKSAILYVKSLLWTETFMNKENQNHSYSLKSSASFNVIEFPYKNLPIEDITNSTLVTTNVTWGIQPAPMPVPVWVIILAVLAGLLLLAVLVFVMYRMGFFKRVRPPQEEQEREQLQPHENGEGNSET
Chain of human vitronectin receptor αvβ3 (P05106 27-788): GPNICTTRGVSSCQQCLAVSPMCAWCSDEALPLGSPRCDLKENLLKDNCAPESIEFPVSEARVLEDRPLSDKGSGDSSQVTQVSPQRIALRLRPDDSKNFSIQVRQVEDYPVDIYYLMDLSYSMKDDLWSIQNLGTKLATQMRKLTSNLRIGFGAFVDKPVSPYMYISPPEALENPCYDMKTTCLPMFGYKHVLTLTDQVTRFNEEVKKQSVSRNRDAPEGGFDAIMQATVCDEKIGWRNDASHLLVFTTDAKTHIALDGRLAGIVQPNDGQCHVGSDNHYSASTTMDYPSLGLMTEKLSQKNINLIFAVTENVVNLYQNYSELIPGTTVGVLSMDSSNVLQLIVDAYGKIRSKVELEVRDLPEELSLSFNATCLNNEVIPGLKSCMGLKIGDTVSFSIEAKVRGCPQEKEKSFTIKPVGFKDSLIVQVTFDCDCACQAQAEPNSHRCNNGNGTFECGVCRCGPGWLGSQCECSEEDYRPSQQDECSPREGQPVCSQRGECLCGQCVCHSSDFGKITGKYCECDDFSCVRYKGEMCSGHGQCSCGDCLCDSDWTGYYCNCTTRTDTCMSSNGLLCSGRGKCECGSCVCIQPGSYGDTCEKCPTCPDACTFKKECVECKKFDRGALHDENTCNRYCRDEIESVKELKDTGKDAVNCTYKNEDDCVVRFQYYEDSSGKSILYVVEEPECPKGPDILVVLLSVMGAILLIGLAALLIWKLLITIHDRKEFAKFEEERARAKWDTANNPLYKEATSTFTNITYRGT

**Q.** How did the IC50 [1] turn out when O=C(NC1=NCCCN1)C1CCN(c2ncnc3c2ncn3C[C@H](NS(=O)(=O)c2cccc3ccccc23)C(=O)O)CC1 [Example 1, (2S)-2-(Naphthalene-1-sulfonylamino)-3-(6-(4-(1 ,4,5,6-tetrahydropyrimidin-2-ylcarbamoyl)-piperidin-1-yl)-purin-9-yl)-propionic acid] was run?
**A.** Its IC50 is 0.0019 µM.

**Q.** And the IC50 [2]?
**A.** The IC50 was 0.03 µM.

**Q.** And the IC50 [3]?
**A.** Its IC50 is 0.0008 µM.

**Q.** Which results are given for O=C(NC1=NCCCN1)C1CCN(c2ncnc3c2ncn3C[C@H](NS(=O)(=O)c2ccc3ccccc3c2)C(=O)O)CC1 [Example 2, (2S)-2-(Naphthalene-2-sulfonylamino)-3-(6-(4-(1,4,5,6-tetrahydropyrimidin-2-ylcarbamoyl)-piperidin-1-yl)-purin-9-yl)-propionic acid]?
**A.** IC50 [1]: 0.0025 µM; IC50 [2]: 0.009 µM; IC50 [3]: 0.0023 µM

**Q.** With CC(C)(C)c1ccc(S(=O)(=O)N[C@@H](Cn2cnc3c(N4CCC(C(=O)NC5=NCCCN5)CC4)ncnc32)C(=O)O)cc1 [Example 3, (2S)-2-(4-tert-Butyl-benzenesulfonylamino)-3-(6-(4-(1,4,5,6-tetrahydropyrimidin-2-ylcarbamoyl)-piperidin-1-yl)-purin-9-yl)-propionic acid] as the molecule, how does the IC50 [1] read?
**A.** The IC50 was 0.0045 µM.

**Q.** And the IC50 [2]?
**A.** The IC50 was 0.067 µM.

**Q.** How did the IC50 [1] turn out when CCCS(=O)(=O)N[C@@H](Cn1cnc2c(N3CCC(C(=O)NC4=NCCCN4)CC3)ncnc21)C(=O)O [Example 4, (2S)-2-(Propane-1-sulfonylamino)-3-(6-(4-(1,4,5,6-tetrahydropyrimidin-2-ylcarbamoyl)-piperidin-1-yl)-purin-9-yl)-propionic acid] was run?
**A.** The IC50 was 0.025 µM.

**Q.** And the IC50 [2]?
**A.** Its IC50 is 1.4 µM.

**Q.** How did the IC50 [1] turn out when O=C(NC1=NCCCN1)C1CCN(c2ncnc3c2ncn3C[C@H](NS(=O)(=O)c2ccc(C(F)(F)F)cc2)C(=O)O)CC1 [Example 5, (2S)-3-(6-(4-(1,4,5,6-Tetrahydropyrimidin-2-ylcarbamoyl)-piperidin-1-yl)-purin-9-yl)-2-(4-trifluoromethyl-benzenesulfonylamino)-propionic acid] was run?
**A.** The IC50 was 0.0032 µM.

**Q.** What about the IC50 [2] of the same molecule?
**A.** Its IC50 is 0.028 µM.

**Q.** And the IC50 [3]?
**A.** Its IC50 is 0.015 µM.

**Q.** O=C(NC1=NCCCN1)C1CCN(c2ncnc3c2ncn3C[C@H](NS(=O)(=O)c2cccc(C(F)(F)F)c2)C(=O)O)CC1 [Example 6, (2S)-3-(6-(4-(1,4,5,6-Tetrahydropyrimidin-2-ylcarbamoyl)-piperidin-1-yl)-purin-9-yl)-2-(3-trifluoromethyl-benzenesulfonylamino)-propionic acid] was tested. Which IC50 [1] did it give?
**A.** The IC50 was 0.0034 µM.

**Q.** What about the IC50 [2] of the same molecule?
**A.** Its IC50 is 0.042 µM.

**Q.** With O=C(NC1=NCCCN1)C1CCN(c2ncnc3c2ncn3C[C@H](NS(=O)(=O)Cc2ccccc2)C(=O)O)CC1 [Example 7, (2S)-2-Phenylmethanesulfonylamino-3-(6-(4-(1,4,5,6-tetrahydropyrimidin-2-ylcarbamoyl)-piperidin-1-yl)-purin-9-yl)-propionic acid] as the molecule, how does the IC50 [1] read?
**A.** The IC50 was 0.023 µM.

**Q.** What about the IC50 [2] of the same molecule?
**A.** The IC50 was 0.5 µM.

**Q.** With O=C(NC1=NCCCN1)C1CCN(c2ncnc3c2ncn3C[C@H](NS(=O)(=O)C(F)(F)F)C(=O)O)CC1 [Example 8, (2S)-3-(6-(4-(1,4,5,6-Tetrahydropyrimidin-2-ylcarbamoyl)-piperidin-1-yl)-purin-9-yl)-2-trifluoromethanesulfonylamino-propionic acid] as the molecule, how does the IC50 [1] read?
**A.** The IC50 was 0.085 µM.

**Q.** Which IC50 [1] does the source give for O=C(NC1=NCCCN1)C1CCN(c2ncnc3c2ncn3C[C@H](NS(=O)(=O)CC(F)(F)F)C(=O)O)CC1 [Example 9, (2S)-3-(6-(4-(1,4,5,6-Tetrahydropyrimidin-2-ylcarbamoyl)-piperidin-1-yl)-purin-9-yl)-2-(2,2,2-trifluoro-ethanesulfonylamino)-propionic acid] here?
**A.** Its IC50 is 0.038 µM.

**Q.** What about the IC50 [2] of the same molecule?
**A.** The IC50 was 2.5 µM.

**Q.** Which results are given for CC(C)CS(=O)(=O)N[C@@H](Cn1cnc2c(N3CCC(C(=O)NC4=NCCCN4)CC3)ncnc21)C(=O)O [Example 10, (2S)-2-(2-Methylpropane-1-sulfonylamino)-3-(6-(4-(1,4,5,6-tetrahydropyrimidin-2-ylcarbamoyl)-piperidin-1-yl)-purin-9-yl)-propionic acid]?
**A.** IC50 [1]: 0.0042 µM; IC50 [2]: 1.12 µM

**Q.** What does the source list for Cc1ccc(S(=O)(=O)N[C@@H](Cn2cnc3c(N4CCC(C(=O)NC5=NCCCN5)CC4)ncnc32)C(=O)O)cc1 [Example 11, (2S)-3-(6-(4-(1,4,5,6-Tetrahydropyrimidin-2-ylcarbamoyl)-piperidin-1-yl)-purin-9-yl)-2-(toluene-4-sulfonylamino)-propionic acid]?
**A.** IC50 [1]: 0.0065 µM; IC50 [2]: 0.087 µM

**Q.** Which IC50 [1] does the source give for Cc1cc(C)c(S(=O)(=O)N[C@@H](Cn2cnc3c(N4CCC(C(=O)NC5=NCCCN5)CC4)ncnc32)C(=O)O)c(C)c1 [Example 12, (2S)-3-(6-(4-(1,4,5,6-Tetrahydropyrimidin-2-ylcarbamoyl)-piperidin-1-yl)-purin-9-yl)-2-(2,4,6-trimethyl-benzenesulfonylamino)-propionic acid] here?
**A.** The IC50 was 0.005 µM.

**Q.** And the IC50 [2]?
**A.** The IC50 was 0.038 µM.

**Q.** What about the IC50 [3] of the same molecule?
**A.** Its IC50 is 0.026 µM.
